The results in this text go back to patent US20240294478A1, “ANTI-CANCER COMPOUNDS AND METHODS OF USE” (YALE UNIVERSITY, priority 2021, published 2024).

Assay [1] relates to PD20 cells, deficient in FANCD2 (FANCD2−/−) or complemented with FANCD2. The experiment in a line: Short-term viability assay, PD20 cells. The class given is cell-based, human. As to conditions: PD20 FANCD2−/− vs +FANCD2. The procedure: (§1) FIGS. 8A-8K. (FIG. 8A) Change in percent cells with 1 micronuclei from baseline (DMSO control) after treatment as in FIGS. 5A and 5C. […] (FIG. 8B) Short-term viability assay curves for KL-50 in PD20 cells, deficient in FANCD2 (FANCD2−/−) or complemented with FANCD2 (+FANCD2). (FIG. 8C) Short-term viability assay curves for KL-50 in PEO4 (BRCA2+) and PEO1 (BRCA2−/−) cells pre-treated with 0.01% DMSO control or 10 μM O^6BG (+O^6BG) for 1 h prior to KL-50 addition. (FIG. 8D) Short-term viability assay curves for KL-50 in DLD1 BRCA2+/− and BRCA2−/−cells pre-treated with 0.01% DMSO control or 10 μM O^6BG (+O^6BG) for 1 h prior to KL-50 addition. For FIGS. 8B-8D, points, mean; error bars, SD; n=3 technical replicates. […] Change in percent cells with 1 micronuclei from baseline (DMSO control) after treatment with olaparib (10 μM) for 48 h in LN229 MGMT+/−, MMR+/−cells. […] Western blot analysis of FANCD2 ubiquitination in LN229 MGMT+/−, MMR+/−cells and PD20 FANCD2-deficient cells, complemented with empty vector (FANCD2+EV), wildtype FANCD2 (PD20+FD2) or ubiquitination-mutant FANCD2 (PD20+KR). The % FANCD2 ubiquitination (% FANCD2 Ub) is quantified as the background-corrected integrated band intensity of the upper band divided by the sum of the background-corrected integrated band intensities of the upper and lower bands. The fold change in % FANCD2 ubiquitination is presented for each cell line relative to DMSO-treated cells. Vinculin serves as loading control. For 8J-8K, points, mean; error bars, SD; n=3 technical replicates.
(§2) Short-term Cell Viability Assay. Cells were seeded in 96-well plates at 1000 or 2000 cells/well and allowed to adhere at 23° C. for 60 min and then incubated overnight at 37° C. […] Cells were imaged on a Cytation 3 imaging reader (BioTek) and quantified using CellProfiler software. For in vitro short-term growth delay experiments, IC50 values were determined from the nonlinear regression equation, [inhibitor] vs normalized response with variable slope.

Assay [2] relates to DLD1 BRCA2+/− and BRCA2−/− cells. The experiment in a line: Short-term viability assay, DLD1 BRCA2 isogenic model +/- O6BG. The class given is cell-based, human. On the procedure:
as §1, §2

Assay [3] concerns LN229 MGMT−/MMR+ and MGMT−/MMR− flank tumors. As to the kind of experiment: Flank tumor second study: regimens, schedules, routes. The class given is in vivo, mouse. Conditions: 5, 15, 25 mg/kg; MWF x 3 weeks or M-F x 1 week; PO or IP. The source says:
FIGS. 9A-91: KL-50 is safe and efficacious on both MGMT−/MMR+ and MGMT−/MMR-flank tumors over a wide range of treatment regimens and conditions. […] (FIG. 9C) Mean body weight of mice during LN229 flank tumor experiments. (FIG. 9D) Kaplan-Meier analysis of LN229 MGMT−/MMR− xenograft flank tumor-bearing mice to determine survival rate based on death, removal from study if mouse body weight loss exceeded 20% of initial body weight, or if tumor volume exceeded 2000 mm^3. […] (FIGS. 9H-91) Xenograft LN229 MGMT−/MMR+ and LN229 MGMT−/MSH6—flank tumors with a larger average starting tumor size of −400 mm^3 and −350 mm^3 respectively, treated with 3 weekly cycles of P.O administration of 10% cyclodextrin (n=4) or KL-50 (n=4, 3 cycles of 25 mg/kg on Monday, Wednesday, and Friday). The study period was limited by control groups which had to be euthanized for exceeding the ethical maximum allowed tumor size, thus ending the study. In all panels, points, mean; error bars, SEM; *, P<0.05; **, P<0.01; ***, P<0.001; ****, P<0.0001; ns, not significant.
In a second study, mice were randomized and administered either KL-50 or vehicle (10% cyclodextrin) by oral gavage or intraperitoneal injection on either M-F x 1 or MWF×3 cycles at 5, 15, or 25 mgs/kg. Caliper measurements were obtained during the dosing period and at least two weeks following treatment. […]

Take `NC(=O)c1ncn2c(=O)n(CCF)nnc12` [KL-50]: in assay [1], the “sensitivity of FANCD2-deficient cells” value is reported as “hypersensitive”. Moreover, the “therapeutic index (TI), ratio of IC50 values in MGMT+/BRCA2+ cells compared to MGMT−/BRCA2− cells” value in assay [2] (DLD1 isogenic model) is recorded as about 600 fold. For the same compound, the “effect of BRCA2 loss on toxicity” value in assay [2] (two MGMT-proficient cell models, following MGMT depletion via O6BG) is listed as “BRCA2 loss enhanced the toxicity”. In addition, the “efficacy and toxicity across regimens” value in assay [3] was “effective and non-toxic”.
